Laboratory results from PMC7419507, “In vitro Cas9-assisted editing of modular polyketide synthase genes to produce desired natural product derivatives” (Nature Communications, 2020).
pEC50: −log10 of the molar value. Several values for one entry are separate records, joined by “and”; a condition that tells them apart may be missing. Equal entries are not always repeated.

Biological target: T1, FKBP12 and mTOR (Homo sapiens, UniProt P42345+P62942)
T1 construct: host or cells: HeLa cells
Assay: Fluoppi analysis: induction of FKBP12-mTOR complex formation in transfected HeLa cells
Format: cell-based
Conditions: for PPI-inducing (binding enhancing) activity between FKBP12 and mTOR compared with rapamycin (1), in words / pEC50: Fluoppi; for pEC50: HeLa cells, 1 h treatment, three independent biological replicates, read-out: EC50, induction of the formation of FKBP-mTOR complex; for Foci intensity: raw data, one replicate per line
Description: Fluoppi harbours a tetrameric fluorescent protein hAG tag and an oligomeric assembly helper Ash tag to create detectable fluorescent foci in cells when there are interactions between two proteins fused to each tag[32].
HeLa cells were maintained in DMEM (Fujifilm Wako, Osaka, Japan) supplemented with 10% FBS (Thermo Fisher Scientific, MA, USA) and 1% of Penicillin-Streptomycin (Thermo Fisher Scientific) in a humidified incubator with 5% CO2 at 37 °C. Harvested cells were plated at 1 × 10^6 cells/well in 6-well plate and incubated for 6 h. Then each 1.25 µg of phAG-mTOR and pAsh-FKBP12 (Medical and Biological Laboratories Co., Ltd., Aichi, Japan) was co-transfected with Lipofectamine 2000 reagent (Thermo Fisher Scientific) overnight. Next day, transfected cells were harvested and seeded in 384-well optical-bottom microplate (PerkinElmer, MA, USA) at a density of 3000 cells/well. After the 24 h incubation at 37 °C, cells were treated with different concentrations of compounds for 1 h. Cells were then fixed with 4% paraformaldehyde and stained with 1 µg/ml of Hoechst33342 (Thermo Fisher Scientific). Cell images of 9 visual fields/well were acquired with ×20 objective lens in Opera Phenix High-Content Screening System (PerkinElmer) and analysed by Harmony4.9 software (PerkinElmer). Because protein-protein interactions are quantified by measuring the aggregation of fluorescent elements in foci, fluorescent intensity in foci was normalised by total fluorescent intensity in each cell. EC50 values were calculated using TIBCO Spotfire 10.3 software (PerkinElmer).

T1 sequence (P42345 2025-2114 limits assumed): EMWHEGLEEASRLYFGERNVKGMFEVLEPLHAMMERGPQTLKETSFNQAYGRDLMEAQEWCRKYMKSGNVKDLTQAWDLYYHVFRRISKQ
T1 sequence (P62942 whole entry): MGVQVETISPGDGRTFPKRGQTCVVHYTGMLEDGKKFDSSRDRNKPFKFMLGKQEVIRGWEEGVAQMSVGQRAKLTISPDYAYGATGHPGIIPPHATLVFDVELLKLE

PPI-inducing (binding enhancing) activity between FKBP12 and mTOR compared with rapamycin (1), in words	pEC50	Foci intensity (conc 9.53674e-5 uM)	Foci intensity (conc 0.000190735 uM)	Foci intensity (conc 0.00038147 uM)	Foci intensity (conc 0.000762939 uM)	Foci intensity (conc 0.00152588 uM)	Foci intensity (conc 0.00305176 uM)	Foci intensity (conc 0.00610352 uM)	Foci intensity (conc 0.012207 uM)	Foci intensity (conc 0.0244141 uM)	Foci intensity (conc 0.0488281 uM)	Foci intensity (conc 0.0976562 uM)	Foci intensity (conc 0.195312 uM)	Foci intensity (conc 0.390625 uM)	Foci intensity (conc 0.78125 uM)	Foci intensity (conc 1.5625 uM)	Foci intensity (conc 3.125 uM)	Foci intensity (conc 6.25 uM)	Foci intensity (conc 12.5 uM)	Compound	also measured
much less potent than 1	5.67	0.01583 and 0.01285 and 0.01813	0.02463 and 0.01296 and 0.02679	0.01747 and 0.03336 and 0.009483	0.01101 and 0.009441 and 0.01241	0.01354 and 0.009078 and 0.03888	0.02172 and 0.01712 and 0.01571	0.01274 and 0.01148 and 0.02185	0.01853 and 0.03131 and 0.01125	0.04 and 0.01743 and 0.009054	0.01856 and 0.02257 and 0.02853	0.02191 and 0.01721 and 0.01479	0.01663 and 0.02497 and 0.01905	0.01986 and 0.02708 and 0.02914	0.02045 and 0.02304 and 0.03319	0.09025 and 0.08153 and 0.07652	0.2188 and 0.1724 and 0.1954	0.2549 and 0.2832 and 0.2819	0.2175 and 0.1877 and 0.2688	COC1CC2CCC(C)C(O)(O2)C(=O)C(=O)N2CCCCC2C(=O)OC(C(C)CC2CCC(O)C(OC)C2)CC(=O)C(C)C=C(C)C(O)CC(=O)C(C)C=C(C)C=CC=CC=C1C (centres unmarked) [Compound 14]	Foci intensity (conc 25 uM): 0.2553 and 0.272 and 0.2457; Foci intensity (conc 50 uM): 0.2721 and 0.2164 and 0.2636
relatively weaker activities	7.14	0.02036 and 0.008593 and 0.006167	0.01432 and 0.008145 and 0.01977	0.01002 and 0.01191 and 0.006949	0.02361 and 0.0319 and 0.02031	0.02629 and 0.01654 and 0.01268	0.02214 and 0.02006 and 0.01134	0.03874 and 0.01998 and 0.01509	0.01596 and 0.01655 and 0.01094	0.04032 and 0.02924 and 0.04626	0.1206 and 0.1281 and 0.1053	0.3145 and 0.2601 and 0.1852	0.3854 and 0.3277 and 0.371	0.4069 and 0.3307 and 0.3864	0.4181 and 0.3809 and 0.3423	0.3991 and 0.3532 and 0.4458	0.3573 and 0.4306 and 0.409	0.3647 and 0.3805 and 0.3539	0.3743 and 0.3421 and 0.396	COC1CC2CCC(C)C(O)(O2)C(=O)C(=O)N2CCCCC2C(=O)OC(C(C)CC2CCC(O)C(OC)C2)CC(O)CC(=O)C(C)C=C(C)C(O)CC(=O)C(C)CC(C)C=CC=CC=C1C (centres unmarked) [Compound 13]	Foci intensity (conc 25 uM): 0.3317 and 0.3763 and 0.373; Foci intensity (conc 50 uM): 0.3749 and 0.3065 and 0.4374
